US8999976B2, “Modulators of cystic fibrosis transmembrane conductance regulator” (Vertex Pharmaceuticals Incorporated, priority 2008, dated 2015)

Target: T1, ΔF508-CFTR (Homo sapiens, UniProt P13569, DEL508-508)
T1 construct: expressed in transfected cells
Experiment: Membrane potential optical assay for potentiators of ΔF508-CFTR (FLIPR III, voltage sensing dyes)
Type: cell-based
Settings: for Emax: NIH3T3, 100% efficacy is the maximum response obtained with 4-methyl-2-(5-phenyl-1H-pyrazol-3-yl)phenol, ΔF508 CFTR NIH 3T3 cells; for EC50: temperature-corrected ΔF508 CFTR NIH 3T3 cells, forskolin activation
Excerpt: The assay utilizes fluorescent voltage sensing dyes to measure changes in membrane potential using a fluorescent plate reader (e.g., FLIPR III, Molecular Devices, Inc.) as a readout for increase in functional ΔF508-CFTR in NIH 3T3 cells.
To identify potentiators of ΔF508-CFTR, a double-addition HTS assay format was developed. This HTS assay utilizes fluorescent voltage sensing dyes to measure changes in membrane potential on the FLIPR III as a measurement for increase in gating (conductance) of ΔF508 CFTR in temperature-corrected ΔF508 CFTR NIH 3T3 cells.
Solutions • Bath Solution #1: (in mM) NaCl 160, KCl 4.5, CaCl2 2, MgCl2 1, HEPES 10, pH 7.4 with NaOH. • Chloride-Free Bath Solution: Chloride Salts in Bath Solution #1 are Substituted with Gluconate Salts.
NIH3T3 mouse fibroblasts stably expressing ΔF508-CFTR are used for optical measurements of membrane potential. The cells are maintained at 37° C. in 5% CO2 and 90% humidity in Dulbecco's modified Eagle's medium supplemented with 2 mM glutamine, 10% fetal bovine serum, 1×NEAA, β-ME, 1×pen/strep, and 25 mM HEPES in 175 cm^2 culture flasks. For all optical assays, the cells were seeded at ˜20,000/well in 384-well matrigel-coated plates and cultured for 2 hrs at 37° C. before culturing at 27° C. for 24 hrs. for the potentiator assay. For the correction assays, the cells are cultured at 27° C. or 37° C. with and without compounds for 16-24 hours. Electrophysiological Assays for assaying ΔF508-CFTR modulation properties of compounds.

T1 sequence (P13569 with tags, fused parts or gaps DEL508-508): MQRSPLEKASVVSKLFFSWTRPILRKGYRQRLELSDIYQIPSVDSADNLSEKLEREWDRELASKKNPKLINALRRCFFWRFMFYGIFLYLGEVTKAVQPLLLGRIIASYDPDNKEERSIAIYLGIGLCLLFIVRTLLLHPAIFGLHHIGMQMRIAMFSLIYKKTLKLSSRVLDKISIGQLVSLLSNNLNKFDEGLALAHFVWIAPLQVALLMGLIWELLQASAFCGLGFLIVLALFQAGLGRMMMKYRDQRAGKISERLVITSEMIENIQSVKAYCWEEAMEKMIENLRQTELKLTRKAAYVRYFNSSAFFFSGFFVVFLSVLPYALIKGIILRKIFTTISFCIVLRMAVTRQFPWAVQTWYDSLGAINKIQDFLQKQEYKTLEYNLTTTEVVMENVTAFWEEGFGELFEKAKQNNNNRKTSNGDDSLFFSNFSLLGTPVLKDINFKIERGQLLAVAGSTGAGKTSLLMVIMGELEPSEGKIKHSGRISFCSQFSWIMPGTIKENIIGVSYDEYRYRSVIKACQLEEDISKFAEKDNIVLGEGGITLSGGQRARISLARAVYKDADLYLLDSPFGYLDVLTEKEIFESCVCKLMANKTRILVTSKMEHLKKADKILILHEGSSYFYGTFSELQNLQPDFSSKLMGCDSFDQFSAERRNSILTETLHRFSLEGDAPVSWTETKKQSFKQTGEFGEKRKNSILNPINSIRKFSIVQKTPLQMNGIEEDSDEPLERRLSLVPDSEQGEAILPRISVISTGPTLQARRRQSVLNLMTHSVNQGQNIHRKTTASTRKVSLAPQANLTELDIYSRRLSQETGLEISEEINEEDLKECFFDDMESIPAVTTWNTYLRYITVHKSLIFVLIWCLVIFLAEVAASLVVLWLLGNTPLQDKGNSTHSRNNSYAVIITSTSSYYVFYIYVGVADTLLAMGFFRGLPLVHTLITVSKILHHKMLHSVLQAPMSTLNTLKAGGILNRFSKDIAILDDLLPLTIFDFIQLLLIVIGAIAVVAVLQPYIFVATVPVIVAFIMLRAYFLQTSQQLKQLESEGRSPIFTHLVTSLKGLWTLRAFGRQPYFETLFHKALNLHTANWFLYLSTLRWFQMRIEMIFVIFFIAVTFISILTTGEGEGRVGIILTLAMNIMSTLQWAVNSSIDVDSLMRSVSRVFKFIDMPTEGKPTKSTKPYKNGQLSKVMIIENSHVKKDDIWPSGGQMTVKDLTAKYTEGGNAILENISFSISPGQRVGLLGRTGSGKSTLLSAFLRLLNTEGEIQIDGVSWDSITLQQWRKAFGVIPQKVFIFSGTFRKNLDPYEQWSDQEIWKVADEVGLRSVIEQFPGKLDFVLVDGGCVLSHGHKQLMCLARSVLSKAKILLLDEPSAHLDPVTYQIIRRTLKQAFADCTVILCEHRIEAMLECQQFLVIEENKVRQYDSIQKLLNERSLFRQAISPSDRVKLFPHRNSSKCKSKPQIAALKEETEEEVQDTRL

Emax [%] | EC50 [µM] | SMILES
25 to 100 | < 5 | CNCC#Cc1cc(C2CCCC2)c(O)cc1NC(=O)C1CNc2cc(OC(F)(F)F)ccc2O1 (stereo not drawn) [Compound 98, N-(4-cyclopentyl-5-hydroxy-2-(3-(methylamino)prop-1-ynyl)phenyl)-6-(trifluoromethoxy)-3,4-dihydro-2H-benzo[b][1,4]oxazine-2-carboxamide]
< 25 | 5 to 20 | CN1CCC(c2cc(C3CCCC3)c(O)cc2NC(=O)C2CNc3cc(C#N)ccc3O2)CC1 (stereo not drawn) [Compound 111, 6-cyano-N-(4-cyclopentyl-5-hydroxy-2-(1-methylpiperidin-4-yl)phenyl)-3,4-dihydro-2H-benzo[b][1,4]oxazine-2-carboxamide]
25 to 100 | < 5 | CN(C)CC#Cc1cc(C2CCCC2)c(O)cc1NC(=O)C1CNc2cc(F)ccc2O1 (stereo not drawn) [Compound 123]
25 to 100 | < 5 | Cc1cc2c(cc1F)NCC(C(=O)Nc1cc(O)c(C3CCCC3)cc1C#CCN(C)C)O2 (stereo not drawn) [Compound 124]
> 100 | < 5 | CCc1ccc(NC(=O)C2CNc3cc(OC(F)(F)F)ccc3O2)c(C#CCN(C)C)c1 (stereo not drawn) [Compound 44]
25 to 100 | 5 to 20 | COc1cc(NC(=O)C2CNc3ccccc3O2)ccc1-n1c(C)ccc1C (stereo not drawn) [Compound 28]
25 to 100 | < 5 | Cc1cc(F)c(NC(=O)C2CNc3ccccc3O2)cc1O (stereo not drawn) [Compound 55]
25 to 100 | < 5 | CC(C)CC#Cc1cc(C2CCCC2)c(O)cc1NC(=O)C1CNc2cc(OC(F)(F)F)ccc2O1 (stereo not drawn) [Compound 53]
< 25 | 5 to 20 | CN1CCN(c2cc(C3CCCC3)c(O)cc2NC(=O)C2CNc3cc(C#N)ccc3O2)CC1 (stereo not drawn) [Compound 29]
> 100 | < 5 | CCc1cc(CN2CCC(C)CC2)c(NC(=O)C2CNc3cc(OC(F)(F)F)ccc3O2)cc1O (stereo not drawn) [Compound 118]
25 to 100 | < 5 | Cc1ccc(NC(=O)C2CNc3cc(OC(F)(F)F)ccc3O2)c(C#CCN(C)C)n1 (stereo not drawn) [Compound 91]
25 to 100 | < 5 | O=C(Nc1cc(O)c(C2CCCC2)cc1F)C1CNc2ccc(F)cc2O1 (stereo not drawn) [Compound 61]
25 to 100 | 5 to 20 | Cc1ccc(NC(=O)C2CNc3cc(OC(F)(F)F)ccc3O2)c(C#CCN2CCC(C(=O)O)CC2)c1 (stereo not drawn) [Compound 69]
25 to 100 | < 5 | Cc1ccc(NC(=O)C2CNc3cc(OC(F)(F)F)ccc3O2)c(C#CCN2CCCCC2)c1 (stereo not drawn) [Compound 71]
< 25 | 5 to 20 | CCN1CCN(c2cc(C3CCCC3)c(O)cc2NC(=O)C2CNc3cc(C#N)ccc3O2)CC1 (stereo not drawn) [Compound 10]
25 to 100 | < 5 | Cc1ccc(NC(=O)C2CNc3cc(OC(F)(F)F)ccc3O2)c(C#CCN2CCNC(=O)C2)c1 (stereo not drawn) [Compound 63]
25 to 100 | 5 to 20 | Cc1ccc(NC(=O)C2CNc3cc(OC(F)(F)F)ccc3O2)c(CCN2CC[C@@H](F)C2)c1 (stereo partly drawn) [Compound 119]
25 to 100 | < 5 | CC(C)(C)c1ccc(NC(=O)[C@H]2CNc3ccc(F)cc3O2)cc1O [Compound 77]
25 to 100 | < 5 | CCc1cc(F)c(NC(=O)C2CNc3ccc(F)cc3O2)cc1O (stereo not drawn) [Compound 20]

SMILES | Emax [%] | EC50 [µM]
CN(C)CC#Cc1cc(N2C3CCC2CC3)ccc1NC(=O)C1CNc2cc(C#N)ccc2O1 (stereo not drawn) [Compound 43, N-(4-(7-azabicyclo[2.2.1]heptan-7-yl)-2-(3-(dimethylamino)prop-1-ynyl)phenyl)-6-cyano-3,4-dihydro-2H-benzo[b][1,4]oxazine-2-carboxamide] |  | < 5
